Results from patent US20020015940A1, “Method of gene expression screening” (priority 2000, published 2002).

Experiments:
E. coli = test: toxicity response in the microbial system; type: cell-based; settings: system of the present invention; consistent with mammalian cell studies
Procedure: (§1) 2.0% cultures were grown from saturated overnight cultures at […] with shaking at 260 rpm for 3 hours. A 4.0% inoculum was mixed with […] top agar (10 g/L NaCl, 5.0 g/L yeast extract, 10 g/L tryptone, 7.0 g/L agar) and 10 ml was layered on 150 mm petri dishes containing LB and ampicillin. 10 μl of each drug to be tested was spotted onto the plate and incubated at 35° C. overnight. Colonies were screened when plated onto LB plates containing compounds that are known to activate oxidative stress genes, paraquat and hydrogen peroxide.
(§2) As the drug diffuses through the media, it created a concentration gradient.

[1] = test system: pCRA11, sodA promoter probe construct; test: agar plate spotting, zone of induction (green halo); type: cell-based, E. coli; settings: higher and varied concentrations of drugs spotted on plate, overnight
Procedure: as §1, §2

[2] = test system: E. coli harboring the stress probes (soxS and sodA); test: high throughput 96-well dose-response of stress probes; type: cell-based; settings: for promoter probes turned on (mode of action): FIG. 5A and 5B
Procedure: 4. 0% cultures of E. coli harboring the stress probes were grown from a saturated overnight culture in 250 ml shake flasks containing 25 ml LB media and 100 μg/ml ampicillin at 35° C. with shaking at 260 rpm until the optical density reached 0.8 at 600 nm. 100 μl aliquots of culture were added to each well of a 96-well plate, along with 10 μl of various concentrations of the drug to be tested and incubated overnight. Experiments were run in duplicate. Fluorescence intensity and optical density measurements were taken using a Wallac 1420 VICTOR multilabel counter.
To test whether the procedure of Example 4 would work in a quantitative high throughput format, an experiment was conducted where the anti-tumor drug DNR was serially diluted and dose-response tested in a 96-well plate. For comparison, a similar experiment was conducted with paraquat.

sodA-GFP stress probe = test: rate of change of GFP signal; type: cell-based, E. coli; settings: continuous stress by bolus of paraquat, FIG. 6
Excerpt: The rate of change of the GFP signal measures the rate of the stress protein induction. This experiment compares the response of the sodA promoter to stresses in the form of a bolus of paraquat in one culture and a transient exposure to hyperoxia in another. A control culture consisting of uninduced sodA:GFP was included for comparison. […] An uninduced culture was included for comparison purposes.
The disadvantages of GFP as a reporter gene are its lag time for fluorescence (approximately 90 minutes) and extraordinary stability. One way to compensate for these is to measure the rate of change of the GFP fluorescence, which is possible using an LED-based sensor that permits continuous in situ measurements. The cell specific rate of change of GFP normalized to optical density is then a measure of the rate of gene expression of the stress protein.

sodA promoter probe = test: stress probe-GFP fusion fluorescence after oxidative stress; type: cell-based, E. coli; settings: varying concentrations of stressor, 4 hours post-stress
Excerpt: (§3) Using GenBank to obtain the genomic sequence for each of the oxidative stress response genes, PCR primers are designed to amplify the promoter region. Generally the target for amplification was approximately 300 base pairs and encompasses the sequence upstream from the native translational start site. […] The entire promoter region flanked by incorporated restriction sites was cloned in frame with GFP on a plasmid. The stress probes were then transformed into E. coli.
(§4) Cells containing each stress probe-GFP fusion were cultured to early log phase, stressed with varying concentrations of paraquat or H2O2, and the fluorescence intensity measured at 4 hours post-stress. Due to the lethality of the higher concentrations of stresses, dividing by optical density (OD) normalized the fluorescence intensity values.

acnA promoter probe = test: as above; type: cell-based, E. coli; settings: varying concentrations of stressor, 4 hours post-stress
Excerpt: as §3, §4

recA promoter probe = test: as above; type: cell-based, E. coli; settings: varying concentrations of stressor, 4 hours post-stress
Excerpt: as §3, §4

dps promoter probe = test: as above; type: cell-based, E. coli; settings: varying concentrations of stressor, 4 hours post-stress
Excerpt: as §3, §4

zwf promoter probe = test: as above; type: cell-based, E. coli; settings: varying concentrations of stressor, 4 hours post-stress
Excerpt: as §3, §4

For `CCOC(=O)NC1=C(N2CC2)C(=O)C(NC(=O)OCC)=C(N2CC2)C1=O` [AZQ, diaziquone], the “rank order of toxicity response” value (E. coli) was “MeDZQ, DZQ, and AZQ, were ranked in decreasing order of toxicity response”.

`COc1cccc2c1C(=O)c1c(O)c3c(c(O)c1C2=O)C[C@@](O)(C(=O)CO)C[C@@H]3O[C@H]1C[C@H](N)[C@H](O)[C@H](C)O1` [Doxorubicin, doxorubicin] was tested, and the “induction of sodA promoter probe compared with induction of recA” value [1] was “stronger induction of sodA than its induction of recA”.

In the case of `COc1cccc2c1C(=O)c1c(O)c3c(c(O)c1C2=O)C[C@@](O)(C(C)=O)C[C@@H]3O[C@H]1C[C@H](N)[C@H](O)[C@H](C)O1` [DNR, daunorubicin], the “promoter probes turned on (mode of action)” value ([2]; 96-well plate) is reported as “turning on soxS and sodA”, the “toxicity to cells beyond the concentration of maximal response” value ([2]; above 20 μM, 96-well plate) is reported as “becomes toxic and kills cells” and the “concentration at which maximal response is observed” value ([2]; serial dilution in 96-well plate, overnight, FIG. 5A) is reported as 20 µM.

With `C[n+]1ccc(-c2cc[n+](C)cc2)cc1` [paraquat] the “rate of sodA expression (GFP derivative)” value (sodA-GFP stress probe) was “continual gene expression of sodA”, the “fluorescence intensity normalized by optical density, sodA promoter probe” value (sodA promoter probe) was “dose dependent response” and the “fluorescence intensity normalized by optical density, acnA promoter probe” value (acnA promoter probe) was “dose dependent response”. For the same compound, the “fluorescence intensity normalized by optical density, recA promoter probe” value (recA promoter probe) was “do not show a dose dependent response and are only inducible when exposed to higher paraquat concentrations”, the “fluorescence intensity normalized by optical density, dps promoter probe” value (dps promoter probe) was “do not show a dose dependent response and are only inducible when exposed to higher paraquat concentrations” and the “fluorescence intensity normalized by optical density, zwf promoter probe” value (zwf promoter probe) was “dose dependent response”. For the same compound, the “promoter probes turned on (mode of action)” value ([2]; 96-well plate) was “turning on soxS and sodA” and the “shape of dose response” value ([2]; serial dilution in 96-well plate, overnight, FIG. 5B) was “monotonically increasing response”.

For `O=C1C=C(N2CC2)C(=O)C=C1N1CC1` [DZQ], the “rank order of toxicity response” value (E. coli) was “MeDZQ, DZQ, and AZQ, were ranked in decreasing order of toxicity response”.

With `CC1=C(N2CC2)C(=O)C(C)=C(N2CC2)C1=O` [MeDZQ, methyl diaziridinequinone] the “rank order of toxicity response” value (E. coli) was “MeDZQ, DZQ, and AZQ, were ranked in decreasing order of toxicity response”.

For `OO` [hydrogen peroxide], the “fluorescence intensity normalized by optical density, sodA promoter probe” value (sodA promoter probe) was “no inducible response”, the “fluorescence intensity normalized by optical density, acnA promoter probe” value (acnA promoter probe) was “no inducible response” and the “fluorescence intensity normalized by optical density, recA promoter probe” value (recA promoter probe) was “dose dependent response”. For the same compound, the “fluorescence intensity normalized by optical density, dps promoter probe” value (dps promoter probe) was “dose dependent response” and the “fluorescence intensity normalized by optical density, zwf promoter probe” value (zwf promoter probe) was “no inducible response”.
